Results from patent US20260274833A1 (NiKang Therapeutics, Inc., priority 2022, published 2026).

target: T1, CDK2 (Homo sapiens, UniProt P24941); assay: Phospho-RB measurement in OVCAR3 cells (HTRF phospho-RB cellular kit); type: cell-based; details: inhibition of RB phosphorylation at S807/811 (HTRF, TR-FRET ratio 665/620), 24 h compound treatment, 0.3 to 10,000 nM
T1 construct: endogenous in cells; host or cells: OVCAR3 cells
Outline: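 IC50 came from a four-parameter logistic fit of the DMSO-normalized TR-FRET ratio (665/620 nm). That ratio reflects RB phosphorylation at S807/811, read with an HTRF antibody pair 4 h after adding lysate at room temperature.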

Structure (SMILES)	IC50
CN(C)CCN(C)S(=O)(=O)N1CCC(Nc2nccc(-c3sc(C(C)(C)C)nc3-c3cccc(NS(=O)(=O)N4Cc5ccncc5C4)c3F)n2)CC1 [Example 157, N-(3-(2-(tert-butyl)-5-(2-((1-(N-(2-(dimethyl-amino)ethyl)-N-methylsulfamoyl)piperidin-4-yl)amino)-pyrimidin-4-yl)thiazol-4-yl)-2-fluoro-phenyl)-1,3-dihydro-2H-pyrrolo [3,4-c]-pyridine-2-sulfonamide]	191 nM
CC(C)(C)c1nc(-c2cccc(NS(=O)(=O)N3CCc4ccccc43)c2F)c(-c2ccnc(NC3CCN(S(=O)(=O)N4CCNCC4)CC3)n2)s1 [Example 158, N-(3-(2-(tert-butyl)-5-(2-((1-(piperazin-1-ylsulfonyl)piperidin-4-yl)amino)-pyrimidin-4-yl)thiazol-4-yl)-2-fluoro-phenyl)indoline-1-sulfonamide]	99.6 nM
CNCc1ccc2c(c1)CCN2S(=O)(=O)Nc1cccc(-c2nc(C(C)(C)C)sc2-c2ccnc(NC3CCN(S(C)(=O)=O)CC3)n2)c1F [Example 159, N-(3-(2-(tert-butyl)-5-(2-((1-(methylsulfonyl)-piperidin-4-yl)amino)-pyrimidin-4-yl)thiazol-4-yl)-2-fluoro-phenyl)-5-((methylamino)methyl)-indoline-1-sulfonamide]	4080 nM
CNCc1ccc2c(c1)N(S(=O)(=O)Nc1cccc(-c3nc(C(C)(C)C)sc3-c3ccnc(NC4CCN(S(C)(=O)=O)CC4)n3)c1F)CC2 [Example 160, N-(3-(2-(tert-butyl)-5-(2-((1-(methylsulfonyl)-piperidin-4-yl)amino)-pyrimidin-4-yl)thiazol-4-yl)-2-fluoro-phenyl)-6-((methylamino)methyl)-indoline-1-sulfonamide]	4040 nM
CN(C)C(=O)c1ccc2c(c1)CN(S(=O)(=O)Nc1cccc(-c3nc(C(C)(C)C)sc3-c3ccnc(NC4CCN(S(C)(=O)=O)CC4)n3)c1F)C2 [Example 161, 2-(N-(3-(2-(tert-butyl)-5-(2-((1-(methyl-sulfonyl)piperidin-4-yl)amino)pyrimidin-4~yl)thiazol~4-yl)-2-fluorophenyl)-sulfamoyl)-N,N-dimethyl-isoindoline-5-carboxamide]	1800 nM
CC(C)(C)c1nc(-c2cccc(NS(=O)(=O)N3CCc4cnccc43)c2F)c(-c2ccnc(NC3CCN(S(C)(=O)=O)CC3)n2)s1 [Example 162, N-(3-(2-(tert-butyl)-5-(2-((1-(methylsulfonyl)piperidin-4-yl)amino)-pyrimidin-4-yl)thiazol-4-yl)-2-fluoro-phenyl)-2,3-dihydro-1H-pyrrolo [3,2-c]-pyridine-1-sulfonamide]	2120 nM
CN(C)C(=O)c1cccc2c1CN(S(=O)(=O)Nc1cccc(-c3nc(C(C)(C)C)sc3-c3ccnc(NC4CCN(S(C)(=O)=O)CC4)n3)c1F)C2 [Example 163, 2-(N-(3-(2-(tert-butyl)-5-(2-((1-(methyl-sulfonyl)piperidin-4-yl)amino)pyrimidin-4-yl)thiazol-4-yl)-2-fluorophenyl)-sulfamoyl)-N, N-dimethyliso-indoline-4-carboxamide]	2430 nM
CNCCOc1cccc2c1CN(S(=O)(=O)Nc1cccc(-c3nc(C(C)(C)C)sc3-c3ccnc(NC4CCN(S(C)(=O)=O)CC4)n3)c1F)C2 [Example 164, N-(3-(2-(tert-butyl)-5-(2-((1-(methylsulfonyl)-piperidin-4-yl)amino)-pyrimidin-4-yl)thiazol-4-yl)-2-fluoro-phenyl)-4-(2-(methylamino)-ethoxy)-isoindoline-2-sulfonamide]	2670 nM
CC(C)(C)c1nc(-c2cccc(NS(=O)(=O)N3CCC4(CC4)C3)c2F)c(-c2ccnc(NC3CCN(S(C)(=O)=O)CC3)n2)s1 [Example 166, N-(3-(2-(tert-butyl)-5-(2-((1-(methylsulfonyl)-piperidin-4-yl)amino)-pyrimidin-4-yl)thiazol-4-yl)-2-fluoro-phenyl)-5-azaspiro[2.4] heptane-5-sulfonamide]	277 nM
CN(C)Cc1cccc2c1CN(S(=O)(=O)Nc1cccc(-c3nc(C(C)(C)C)sc3-c3ccnc(NC4CCN(S(C)(=O)=O)CC4)n3)c1F)C2 [Example 167, N-(3-(2-(tert-butyl)-5-(2-((1-(methylsulfonyl)-piperidin-4-yl)amino)-pyrimidin-4-yl)thiazol-4-yl)-2-fluoro-phenyl)-4-((dimethylamino)-methyl)-isoindoline-2-sulfonamide]	410 nM
CC(C)(C)c1nc(-c2cccc(NS(=O)(=O)N3CCc4ccc(C(N)=O)cc43)c2F)c(-c2ccnc(NC3CCN(S(C)(=O)=O)CC3)n2)s1 [Example 168, 1-(N-(3-(2-(tert-butyl)-5-(2-((1-(methyl-sulfonyl)piperidin-4-yl)amino)pyrimidin-4-yl)thiazol-4-yl)-2-fluorophenyl)-sulfamoyl)-indoline-6-carboxamide]	1590 nM
CC(C)(C)c1nc(-c2cccc(NS(=O)(=O)N3CCC4(CCCC4)C3)c2F)c(-c2ccnc(NC3CCN(S(C)(=O)=O)CC3)n2)s1 [Example 169, N-(3-(2-(tert-butyl)-5-(2-((1-(methylsulfonyl)-piperidin-4-yl)amino)-pyrimidin-4-yl)thiazol-4-yl)-2-fluoro-phenyl)-2-azaspiro [4.4]nonane-2-sulfonamide]	2250 nM
CC(C)(C)c1nc(-c2cccc(NS(=O)(=O)N3CCc4ccc(C#N)cc43)c2F)c(-c2ccnc(NC3CC4(C3)CS(=O)(=O)C4)n2)s1 [Example 170, N-(3-(2-(tert-butyl)-5-(2-((2,2-dioxido-2-thiaspiro[3.3]heptan-6-yl)amino)-pyrimidin-4-yl)thiazol-4-yl)-2-fluoro-phenyl)-6-cyano-indoline-1-sulfonamide]	62 nM
CN(C)Cc1ccc2c(c1)CN(S(=O)(=O)Nc1cccc(-c3nc(C(C)(C)C)sc3-c3ccnc(NC4CCN(S(C)(=O)=O)CC4)n3)c1F)C2 [Example 171, N-(3-(2-(tert-butyl)-5-(2-((1-(methylsulfonyl)-piperidin-4-yl)amino)-pyrimidin-4-yl)thiazol-4-yl)-2-fluoro-phenyl)-5-((dimethylamino)methyl)-isoindoline-2-sulfonamide]	2120 nM
CNCc1cccc2c1CN(S(=O)(=O)Nc1cccc(-c3nc(C(C)(C)C)sc3-c3ccnc(NC4CCN(S(C)(=O)=O)CC4)n3)c1F)C2 [Example 172, N-(3-(2-(tert-butyl)-5-(2-((1-(methylsulfonyl)-piperidin-4-yl)amino)-pyrimidin-4-yl)thiazol-4-yl)-2-fluoro-phenyl)-4-((methylamino)methyl)-isoindoline-2-sulfonamide]	3170 nM
CN(C1CNC1)S(=O)(=O)N1CCC(Nc2nccc(-c3sc(C(C)(C)C)nc3-c3cccc(NS(=O)(=O)N4Cc5ccccc5C4)c3F)n2)CC1 [Example 173, N-(3-(5-(2-((1-(N-(azetidin-3-yl)-N-methylsulfamoyl)piperidin-4-yl)amino)-pyrimidin-4-yl)-2-(tert-butyl)thiazol-4-yl)-2-fluorophenyl) isoindoline-2-sulfonamide]	385 nM
CC(C)(C)c1nc(-c2cccc(NS(=O)(=O)N3CCC4(CCC4)C3)c2F)c(-c2ccnc(NC3CCN(S(C)(=O)=O)CC3)n2)s1 [Example 174, N-(3-(2-(tert-butyl)-5-(2-((1-(methylsulfonyl)-piperidin-4-yl)amino)-pyrimidin-4-yl)thiazol-4-yl)-2-fluoro-phenyl)-6-azaspiro [3.4]octane-6-sulfonamide]	853 nM
CC(C)(C)c1nc(-c2cccc(NS(=O)(=O)N3CCC4(CC4)C3)c2F)c(-c2ccnc(NC3CCN(S(=O)(=O)N4CCNCC4)CC3)n2)s1 [Example 175, N-(3-(2-(tert-butyl)-5-(2-((1-(piperazin-1-ylsulfonyl)piperidin-4-yl)amino)-pyrimidin-4-yl)thiazol-4-yl)-2-fluoro-phenyl)-5-azaspiro [2.4]heptane-5-sulfonamide]	943 nM
CC(C)(C)c1nc(-c2cccc(NS(=O)(=O)N3CCC4(CCCC4)C3)c2F)c(-c2ccnc(NC3CCN(S(=O)(=O)N4CCNCC4)CC3)n2)s1 [Example 176, N-(3-(2-(tert-butyl)-5-(2-((1-(piperazin-1-ylsulfonyl)piperidin-4-yl)amino)-pyrimidin-4-yl)thiazol-4-yl)-2-fluoro-phenyl)-2-azaspiro[4.4] nonane-2-sulfonamide]	1920 nM
CC(C)(C)c1nc(-c2cccc(NS(=O)(=O)N3CCC4(CCC4)C3)c2F)c(-c2ccnc(NC3CCN(S(=O)(=O)N4CCNCC4)CC3)n2)s1 [Example 177, N-(3-(2-(tert-butyl)-S-(2-((1-(piperazin-1-ylsulfonyl)piperidin-4-yl)amino)-pyrimidin-4-yl)thiazol-4-yl)-2-fluoro-phenyl)-6-azaspiro[3.4] octane-6-sulfonamide]	1020 nM
CC(C)c1nc(-c2cccc(NS(=O)(=O)N3CCc4ccccc43)c2F)c(-c2ccnc(NC3CCN(S(=O)(=O)N4CCNCC4)CC3)n2)s1 [Example 178, N-(2-fluoro-3-(2-isopropyl-5-(2-((1-(piperazin-1-ylsulfonyl)piperidin-4-yl)amino)pyrimidin-4-yl)thiazol-4-yl)phenyl)indoline-1-sulfonamide]	203 nM
CN1CC(N(C)S(=O)(=O)N2CCC(Nc3nccc(-c4sc(C(C)(C)C)nc4-c4cccc(NS(=O)(=O)N5Cc6ccccc6C5)c4F)n3)CC2)C1 [Example 179, N-(3-(2-(tert-butyl)-5-(2-((1-(N-methyl-N-(1-methylazetidin-3-yl)sulfamoyl)-piperidin-4-yl)amino)pyrimidin-4-yl)-thiazol-4-yl)-2-fluorophenyl)-isoindoline-2-sulfonamide]	241 nM
CC(C)(C)c1nc(-c2cccc(NS(=O)(=O)N3CCC4(CC4)C3)c2F)c(-c2ccnc(NC3CC4(C3)CS(=O)(=O)C4)n2)s1 [Example 180, N-(3-(2-(tert-butyl)-5-(2-((2,2-dioxido-2-thiaspiro[3.3]heptan-6-yl)amino)-pyrimidin-4-yl)thiazol-4-yl)-2-fluoro-phenyl)-5-azaspiro[2.4] heptane-5-sulfonamide]	2820 nM
